A short description of this data set: Mouse subcutaneous neuropharmacokinetics study. The data set is classed as in vivo, Male C57Bl6 mice. The conditions noted are these: male, C57Bl6, mouse, brain (cerebellum homogenate) and plasma, sc, subcutaneous dose of 1 mg/kg, read-out: Mouse Cb,u/Cp,u. How it is done: The neuropharmacokinetics studies in mouse were conducted at Wuxi (Shanghai, China) with bioanalysis conducted at BioDuro (Beijing, China) with the exception of the Comparative-compound 3, which bioanalysis was conducted at Wuxi. All in vivo studies were conducted in accordance with regulations and established guidelines using protocols reviewed and approved by the Pfizer Worldwide Research and Development (WRD, or other) Institutional Animal Care and Use Committee.
Male C57Bl6 mice were maintained on a 12-h light/dark cycle in a temperature- and humidity-controlled environment with free access to food and water. The test compounds (Examples 1 and 2 and Comparative Compounds 1-3) were administered as a subcutaneous dose of 1 mg/kg which was delivered in a dose volume of 10 mL/kg. The dose solution for all compounds was formulated in 5% DMSO/5% cremophor/90% saline. Blood and brain samples were collected at 0.5, 1, 2, 4, 8, 12, and 24 h post-dose (n=3 per time point). Blood samples were collected into tubes containing sodium fluoride and 4-(2-aminoethyl)benzenesulfonyl fluoride hydrochloride (AEBSF; final concentration 2 mg/mL) to inhibit hydrolase activity and placed on wet ice. Following centrifugation to afford plasma, the samples were transferred to polypropylene tubes and stored frozen at −20° C. to −80° C. until analysis. Immediately following blood collection the mice were euthanized by cervical dislocation and the brains were removed. The cerebellum was immediately frozen in liquid nitrogen and stored at −80° C. until analysis.
Cerebellum samples were thawed, diluted 1:4 (w/v) with water, and homogenized using an H-speed dispersator. Standards and controls were prepared in a similar manner using a brain homogenate prepared from untreated animals. The plasma standard curves were generated with species specific plasma. All plasma and brain homogenate samples were quantified via LC/MS-MS using multiple reaction monitoring with non-validated methods.
Equilibrium dialysis using standard procedures [See Di et al., “Species independence in brain tissue binding using brain homogenates”; Drug Metab Dispos 39:1270-1277, 2011) were used for determination of the unbound fraction of the test compounds (Examples 1 and 2 and Comparative Compounds 1-3) in mouse plasma (fu,p; see Di et al., “impact of recovery on fraction unbound using equilibrium dialysis”; J Pharm Sci 101:1327-1335, 2012) and unbound fraction in rat brain homogenate (fu,b; see Di et al., “Species independence in brain tissue binding using brain homogenates”; Drug Metab Dispos 39:1270-1277, 2011). The determination of the unbound fraction in plasma also included the addition of AEBSF at a final concentration of 2 mg/mL to the incubation.
The pharmacokinetic parameters were computed by non-compartmental analysis using Watson Bioanalytical LIMS version 7.5. The AUC values were calculated using the linear trapezoidal method for both brain and plasma. Measured total plasma (Cp) and brain (Cb; assuming brain tissue density of 1 g/mL) concentrations were converted to unbound (free) values using the matrix specific binding factor (fu, p or fu,b) to determine free plasma (Cp,u) and free brain (Cb,u) values. All neurocompartmental ratios (Cb,u/Cp,u) were calculated through use of AUC values with the exception of Comparative Compounds 1 and 2 which used the mean of individual animal values due to insufficient data to calculate an AUC value.

`O=C(OC(C(F)(F)F)C(F)(F)F)N1CCC2(CC1)C[C@@H](NS(=O)(=O)C1CC1)CO2` [Example 2, 1,1,1,3,3,3-Hexafluoropropan-2-yl (3R)-3-[(cyclopropylsulfonyl)amino]-1-oxa-8-azaspiro[4.5]decane-8-carboxylate]: the Kp,uu (unbound brain/unbound plasma ratio) is 0.8.
In the case of `O=C(OC(C(F)(F)F)C(F)(F)F)N1CCC2(CC1)C[C@@H](NS(=O)(=O)CC1CC1)CO2` [Example 1, 1,1,1,3,3,3-Hexafluoropropan-2-yl (3R)-3-{[(cyclopropylmethyl)sulfonyl]amino}-1-oxa-8-azaspiro[4.5]decane-8-carboxylate] it was 1.

(Values after patent US20210309669A1, “Heterocyclic Spiro Compounds As MAGL Inhibitors” (Pfizer Inc., priority 2018, published 2021).)
